These results are taken from PMC12067093, “Discovery and optimisation of a covalent ligand for TRIM25 and its application to targeted protein ubiquitination” (Chemical Science, 2025).

Assay [1] addresses T1, BRD4 (ubiquitination by TRIM25) (Homo sapiens, UniProt O60885+Q14258).
T1 construct: Recombinant full-length BRD4 (short isoform); Full-length TRIM25 (4 μM) was pre-labelled with either DMSO or compound HB1, HB2 or HB3; made in house; host or cells: Sf9 insect cells (full-length TRIM25); UBA1 and UBCH5B were made as previously described
The experiment in a line: In vitro targeted protein ubiquitination time course assay for BRD4. Particulars: TRIM25 4 μM pre-labelled with compound 50 μM, 20 h, 4 °C, excess removed (HB1a 4 μM added directly); 60 min at 30 °C. It is filed as biochemical. As to the method: 1 containing 500 mM DTT (ThermoFisher Scientific, R0861). Timepoint at 0 min
2 indicates the sample taken prior to the addition of ATP. Samples were analysed by
3 SDS-PAGE and imaged by Coomassie staining, and using the Odyssey CLx Infrared
4 Imaging System (Li-Cor).
6 For targeted protein ubiquitination assays with compounds HB1 – HB3, His10-TRIM25
8 DMSO) or compound HB1, HB2 or HB3 (50 µM, 1% DMSO) in buffer 50 mM HEPES
9 pH 7.5, 150 mM NaCl, 0.5 mM TCEP for 20 h at 4 °C. Protein-compound complexes
11 capture buffer 50 mM Tris pH 7.5, 150 mM NaCl, 5 mM MgCl2, 20 mM imidazole, 0.5
12 mM TCEP, 0.5% IGEPAL for 2 h at 4 °C, with rotation. Beads were washed once with
13 capture buffer to remove excess unreacted compound. Ubiquitination assay reaction
14 mixture comprised components as described above, with the addition of 4 µM BRD4
15 substrate. For reaction with control compound HB1a (JQ1-2PEG), 4 µM HB1a was
16 added directly to the ubiquitination assay reaction mixture. Samples were analysed as
17 described above, and by western blotting against BRD4 (Abcam, ab128874, 1:1000),
18 which was detected by anti-rabbit-HRP secondary antibody (Dako, P0399, 1:2000).
19 Blots were developed in Amersham ECL Western Blotting Detection Reagent (Cytiva,
20 RPN2106), imaged on a ChemiDoc MP Imaging System (Bio-Rad), and bands were
21 analysed in ImageLab (Bio-Rad). […]

Assay [2] concerns the target T2, TRIM25 PRYSPRY and BRD4 BD2 ternary complex (Homo sapiens, UniProt O60885+Q14258).
T2 construct: made in house; host or cells: Sf9 insect cells (TRIM25 PRYSPRY)
Briefly: Recombinant protein ternary complex pull-down. It is filed as binding. Particulars: TRIM25 PRYSPRY pre-labelled with compound 50 μM overnight, intermediate wash step, then BRD4 BD2. As to the method: 3 25 mM HEPES, 50 mM NaCl for 20 h at 4 °C, before purification by gel filtration into
4 buffer 20 mM Bis-Tris pH 7.5, 150 mM NaCl, 0.5 mM TCEP. Commercially available
5 sitting drop crystallization screens were dispensed at 20 °C using an automated
6 Mosquito machine (TTP Labtech). Crystals grew from a pre-labelled protein-ligand
8 drops containing 100 nL protein-ligand complex and 100 nL reservoir solution. For X-
9 ray data acquisition, crystals were cryoprotected with perfluoropolyether cryo oil
10 (Hampton Research, HR2-814). Diffraction data were collected on beamline I04 (λ =
11 0.9537 Å) at Diamond Light Source (Oxford, UK), processed using DIALS17 and
12 merged and scaled using AIMLESS.18 The structure of the complex was solved by
13 molecular replacement using the available TRIM25 PRYSPRY structure (6FLM)10 as
15 in Coot20 and refined using Refmac21 and Phenix.19 Coordinates and structure factors
16 are deposited in the Protein Data Bank under accession code 9I0T. Further details on
17 data collection and refinement statistics are summarised in Supplementary Table 1.
20 Recombinant TRIM25 PRYSPRY (100 µM) in 25 mM HEPES pH 7.5, 50 mM NaCl,
23 acquired with Topspin (Bruker) at timepoint 0 (immediately after mixing protein with
24 compound), and after 4 h incubation.
26 Recombinant protein ternary complex pull-down assays
27 His10-TRIM25 or His6-TRIM25 PRYSPRY (4 µM) was pre-labelled with either DMSO
28 (1%) or heterobifunctional compounds (HB1, HB2 or HB3, 50 µM, 1% DMSO) and
29 captured on His Mag Sepharose Ni magnetic beads, and washed once to remove
30 excess unreacted compound, as described above.
32 Substrate (BRD4 or BRD4 BD2) (4 µM, assuming 1:1 with on-bead captured TRIM25-
33 compound complex) was added to the on-bead captured TRIM25-compound complex,
1 and incubated in capture buffer 50 mM Tris pH 7.5, 150 mM NaCl, 5 mM MgCl2, 20 mM
2 imidazole, 0.5 mM TCEP, 0.5% IGEPAL for 2 h at 4 °C, with rotation. Beads were
3 washed three times with 500 µL capture buffer, and mixed with 12 µL NuPAGE LDS
4 sample buffer (1x, Invitrogen, NP0007). Samples were analysed by SDS-PAGE and […]

Structures are written as SMILES.

T2 sequence (Q14258 435-630, other chains not shown): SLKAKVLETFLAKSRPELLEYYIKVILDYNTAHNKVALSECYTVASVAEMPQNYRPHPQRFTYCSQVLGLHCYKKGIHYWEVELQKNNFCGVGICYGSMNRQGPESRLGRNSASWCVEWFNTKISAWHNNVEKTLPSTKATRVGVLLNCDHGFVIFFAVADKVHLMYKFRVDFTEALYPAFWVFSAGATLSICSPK
T1 sequence (Q14258 whole entry, other chains not shown, canonical isoform): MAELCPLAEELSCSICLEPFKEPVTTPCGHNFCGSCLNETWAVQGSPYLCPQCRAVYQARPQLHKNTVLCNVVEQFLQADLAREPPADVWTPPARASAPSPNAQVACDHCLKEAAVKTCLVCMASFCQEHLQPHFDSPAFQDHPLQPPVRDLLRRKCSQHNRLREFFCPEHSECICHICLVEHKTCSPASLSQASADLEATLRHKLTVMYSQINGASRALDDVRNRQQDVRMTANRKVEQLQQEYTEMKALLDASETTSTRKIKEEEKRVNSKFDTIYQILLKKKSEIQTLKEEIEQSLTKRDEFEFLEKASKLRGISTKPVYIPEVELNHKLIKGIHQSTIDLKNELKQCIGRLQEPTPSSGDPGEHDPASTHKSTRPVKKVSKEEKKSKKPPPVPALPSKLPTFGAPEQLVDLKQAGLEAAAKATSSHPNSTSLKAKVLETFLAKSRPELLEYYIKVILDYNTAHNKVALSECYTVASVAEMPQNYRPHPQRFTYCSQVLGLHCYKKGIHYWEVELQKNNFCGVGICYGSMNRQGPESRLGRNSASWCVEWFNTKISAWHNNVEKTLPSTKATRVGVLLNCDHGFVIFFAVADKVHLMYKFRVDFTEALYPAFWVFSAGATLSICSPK

Regarding `Cc1cc(C(=O)N2CCCN(C(=O)CCl)CC2)ccc1-c1ccccc1` [Compound 10], the “targeted ubiquitination of BRD4 by TRIM25” value (“targeted ubiquitination” for short) in assay [1] is listed as “no targeted ubiquitination of BRD4 was observed”. Take `Cc1cc(C(=O)N2CCCN(C(=O)CCl)CC2)ccc1-c1cccc(C(=O)NCCOCCOCCNC(=O)C[C@@H]2N=C(c3ccc(Cl)cc3)c3c(sc(C)c3C)-n3c(C)nnc32)c1` [HB1]: the “in vitro ternary complex formation (pull-down)” value in assay [2] is listed as “Ternary complex formation was observed”. In assay [1], the “targeted ubiquitination” value is recorded as “heterobifunctional compound-induced ubiquitination of BRD4”. For `Cc1cc(C(=O)N2CCCN(C(=O)CCl)CC2)ccc1-c1cccc(C(=O)NCCOCCOCCOCCNC(=O)C[C@@H]2N=C(c3ccc(Cl)cc3)c3c(sc(C)c3C)-n3c(C)nnc32)c1` [HB2] the same measures were “Ternary complex formation was observed” and “heterobifunctional compound-induced ubiquitination of BRD4”.

Turning to `Cc1cc(C(=O)N2CCCN(C(=O)CCl)CC2)ccc1-c1cccc(C(=O)NCCOCCOCCOCCOCCNC(=O)C[C@@H]2N=C(c3ccc(Cl)cc3)c3c(sc(C)c3C)-n3c(C)nnc32)c1` [HB3], the “in vitro ternary complex formation (pull-down)” value in assay [2] is listed as “Ternary complex formation was observed”. In addition, the “targeted ubiquitination” value in assay [1] is reported as “heterobifunctional compound-induced ubiquitination of BRD4”.
